Results: patent publication US8946164B2, “Bioactive peptide” (Kyoto University, priority 2010, dated 2015)

Experiments:
mice [1] = experiment: Elevated plus-maze test with peptide given in combination with an inhibitor or receptor antagonist; format: in vivo, mouse
Experimental: An anxiolytic peptide of the invention was administered in combination with the inhibitor or one of the antagonists for various receptors as follows, and tests were conducted in the same manner as in Example 1 in order to identify the effect of each antagonist on the anxiolytic activity of the peptide of the present invention, i.e., to identify the receptors on which the peptide of the invention acts.
COX inhibitor: Indomethacin, 10 mg/kg
DP1-R antagonist: BWA868C, 60 μg/kg

mice [2] = experiment: Elevated plus-maze test of anxiolytic effect; format: in vivo, mouse; conditions: for Minimum Effective Dose (anxiolytic effect): IP
Experimental: In the present invention, the anxiolytic effects can be evaluated by the elevated plus-maze test, which has been developed as a method for evaluating anxiety-related behaviors to screen anxiolytic drugs and has been widely used (FIG. 1). Specifically, the test is performed as follows: a candidate substance for an anxiolytic drug is orally or intraperitoneally administered to a mouse, the mouse is placed in an elevated plus-maze 30 minutes after the administration, and the potency of the anxiolytic effect is evaluated based on the number of entries into the open arms and the change in the time spent on the open arms.
The elevated plus-maze includes two open arms (25×5 cm) and two closed arms (25×5×15 cm), which were joined to a central platform 50 cm high above the floor (see FIG. 1). Because the closed arms were surrounded by barriers, a mouse could safely walk in the closed arms in spite of the elevated position. On the other hand, because the open arms were not surrounded by barriers, a mouse walking along the open arms would feel anxious that it might fall from the elevated position. Therefore, the more time the mouse spent in the open arms, or the greater the number of entries into the open arms, the less anxious the mouse would feel. Thus, the anxiolytic activity is determined based on these indices.
A mouse was placed on a portion of the central platform facing one of the open arms, and the test was started. During the 5-minute test time, the cumulative time spent in the open arms (abbr.: time in open arms), the number of visits to the open arms (abbr.: visits to open arms), and the total number of visits to the either arms (abbr.: total visits) were recorded. The percentage of the time spent in the open arms and the percentage of the number of visits to the open arms were calculated as indices of anxiety.
The data obtained from the elevated plus-maze test were represented as the mean values±SEM. The data were analyzed by one-way ANOVA, followed by the Fisher test for multiple comparisons.
Each of VYLPR (SEQ ID NO:1) (Example 1), YLPR (SEQ ID NO:2) (Example 2), and LPR (SEQ ID NO:3) (Example 3) dissolved in physiological saline was administered intraperitoneally (IP) or orally (PO) to mice (n=3 to 14) in the amount shown in each figure before the mice were placed on the central portion of the elevated plus-maze. The percentage of the time spent in the open arms, the percentage of the number of visits to the open arms, and the total number of visits to the both arms (total visits) were compared between groups administered each peptide and the control group (0 mg/kg). The results are shown in FIGS. 2 to 5, FIGS. 7 and 8, and Table 1.
Trypsin-digested ovalbumin was used as an active ingredient and was administered intraperitoneally and orally to test the anxiolytic effects using the open arms in the same manner as in Examples 1 to 3.
An aqueous solution of ovalbumin (20 mg/ml) was heated (10-min boiling), and bovine trypsin (E:S=1:100) was added to carry out a reaction at 37° C. for 5 hours. As a result, VYLPR (SEQ ID NO:1) was produced at a high efficiency of 44 mol %. When the aqueous solution of ovalbumin was not pre-heated, VYLPR (SEQ ID NO:1) was below the detection limit and was hardly produced even with the trypsin treatment. TPCK-treated Trypsin from bovine pancreas (Sigma) was used as the bovine trypsin. […]

Substance	anxiolytic effect in the presence of prostaglandin DP1 receptor antagonist (mice [1]; BWA868C 60 μg/kg, FIG. 10A)	anxiolytic effect in the presence of adenosine A2A receptor antagonist (mice [1]; SCH58261 0.1 mg/kg, FIG. 10B)	Minimum Effective Dose (anxiolytic effect) (mice [2]) [mg/kg]	anxiolytic effect (mice [2]; intraperitoneal administration)	anxiolytic effect (mice [2]; oral administration)
Val-Tyr-Leu-Pro-Arg (VYLPR; Designed peptide)	inhibited	inhibited	0.3	–	–
Tyr-Leu-Pro-Arg (YLPR; Designed peptide)	–	–	0.3	–	–
Undigested ovalbumin: Undigested ovalbumin (with and without heat treatment) used as the control for the trypsin digest [reference compound]	–	–	–	did not show anxiolytic effects	did not show anxiolytic effects
Leu-Pro-Arg [LPR]	–	–	0.3	–	–
